Experimental data reported in patent US12162890B2 (Novartis AG, priority 2015, dated 2024).

molecular target: HEK293 cells with stable expression of the GRIN1 gene and tetracycline-inducible expression of the GRIN2B gene (NMDA receptor, NR2B) (Homo sapiens, UniProt Q13224); assay: Fluo-8 Ca2+ flux assay: reversal of Ro 25-6981-mediated suppression of the Ca2+ response to co-agonist (glutamate/glycine); assay type: cell-based; details: reversal of the Ro 25-6981 suppression of the Ca2+ response to co-agonist (glutamate/glycine); note: test concentration or dose not given here
Sequence (Q13224 27-1484, other chains not shown): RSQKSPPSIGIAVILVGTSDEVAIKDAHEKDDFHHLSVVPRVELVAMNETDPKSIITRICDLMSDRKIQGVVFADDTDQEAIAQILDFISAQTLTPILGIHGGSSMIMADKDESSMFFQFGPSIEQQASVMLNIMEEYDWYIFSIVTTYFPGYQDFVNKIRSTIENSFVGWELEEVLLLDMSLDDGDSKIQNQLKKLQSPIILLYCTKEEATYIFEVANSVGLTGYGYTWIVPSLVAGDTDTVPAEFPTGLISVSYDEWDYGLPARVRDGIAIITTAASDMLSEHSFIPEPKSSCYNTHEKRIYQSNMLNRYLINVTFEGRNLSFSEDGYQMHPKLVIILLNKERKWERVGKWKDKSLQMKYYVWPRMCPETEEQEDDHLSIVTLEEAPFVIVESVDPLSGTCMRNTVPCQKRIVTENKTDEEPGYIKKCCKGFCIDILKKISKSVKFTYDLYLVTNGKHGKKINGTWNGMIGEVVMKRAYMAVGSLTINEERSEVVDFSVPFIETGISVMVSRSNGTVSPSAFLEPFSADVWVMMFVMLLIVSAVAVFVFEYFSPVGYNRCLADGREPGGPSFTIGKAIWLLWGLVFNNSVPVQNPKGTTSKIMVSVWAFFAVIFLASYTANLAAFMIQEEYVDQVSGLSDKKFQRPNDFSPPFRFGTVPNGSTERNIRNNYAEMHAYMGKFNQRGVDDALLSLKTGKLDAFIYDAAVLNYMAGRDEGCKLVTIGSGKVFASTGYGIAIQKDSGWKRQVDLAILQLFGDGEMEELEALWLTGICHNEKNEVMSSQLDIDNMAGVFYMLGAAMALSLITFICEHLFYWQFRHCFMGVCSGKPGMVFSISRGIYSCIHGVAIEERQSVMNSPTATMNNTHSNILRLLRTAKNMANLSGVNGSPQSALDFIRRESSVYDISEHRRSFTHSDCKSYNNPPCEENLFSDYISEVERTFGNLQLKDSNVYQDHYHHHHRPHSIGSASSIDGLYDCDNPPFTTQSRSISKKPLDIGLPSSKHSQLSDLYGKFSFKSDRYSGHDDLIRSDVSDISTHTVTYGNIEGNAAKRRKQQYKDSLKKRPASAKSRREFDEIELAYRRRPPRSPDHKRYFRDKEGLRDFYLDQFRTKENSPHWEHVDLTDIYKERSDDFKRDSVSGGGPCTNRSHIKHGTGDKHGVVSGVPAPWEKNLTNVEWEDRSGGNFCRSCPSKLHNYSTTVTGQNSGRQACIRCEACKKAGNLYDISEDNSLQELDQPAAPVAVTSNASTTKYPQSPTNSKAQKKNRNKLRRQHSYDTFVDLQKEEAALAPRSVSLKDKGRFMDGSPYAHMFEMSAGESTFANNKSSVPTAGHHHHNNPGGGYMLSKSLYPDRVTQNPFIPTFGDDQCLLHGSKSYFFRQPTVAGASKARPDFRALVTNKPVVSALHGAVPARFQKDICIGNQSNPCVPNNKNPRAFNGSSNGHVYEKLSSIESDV

Row | Response Recovered (%) | Structure (SMILES)
1 | 79 | O=C(Cn1ccc2scc(-c3ccc(Cl)c(C(F)(F)F)c3)c2c1=O)N1CC(F)C1 [Example 34, 3-(4-chloro-3-(trifluoromethyl)phen-yl)-5-(2-(3-fluoroazetidin-1-yl)-2-oxoethyl)thieno[3,2-c]pyridin-4(5H)-one]
2 | 28 | O=C(Cn1ccc2scc(-c3cnc(Cl)c(Cl)c3)c2c1=O)N1CC(F)C(F)C1 (stereo not drawn) [Example 35, 3-(5,6-dichloropyridin-3-yl)-5-(2-(3,4-difluoropyrrolidin-1-yl)-2-oxoethyl)thieno[3,2-c]pyridin-4(5H)-one]
3 | 54 | O=C(Cn1ccc2scc(-c3cnc(Cl)c(C(F)(F)F)c3)c2c1=O)N1CC(F)C(F)C1 (stereo not drawn) [Example 36, 3-(6-chloro-5-(trifluoromethyl)pyri-din-3-yl)-5-(2-(3,4-difluoropyrrolidin-1-yl)-2-oxoethyl)thieno[3,2-c]pyridin-4(5H)-one]
4 | 22 | O=C(Cn1ccc2scc(-c3cnc(F)c(Cl)c3)c2c1=O)N1CCC(F)C1 (stereo not drawn) [Example 37, 3-(5-chloro-6-fluoropyridin-3-yl)-5-(2-(3-fluoropyrrolidin-1-yl)-2-oxoethyl)thieno[3,2-c]pyridin-4(5H)-one]
5 | 18 | O=C(Cn1ccc2scc(-c3cnc(F)c(Cl)c3)c2c1=O)N1CC(F)C(F)C1 (stereo not drawn) [Example 38, 3-(5-chloro-6-fluoropyrridin-3-yl)-5-(2-(3,4-difluoropyrrolidin-1-yl)-2-oxoethyl)thieno[3,2-c]pyridin-4(5H)-one]
6 | 140 | CC1(F)CN(C(=O)Cn2ccc3scc(-c4ccc(F)c(Cl)c4)c3c2=O)C1 [Example 39, 3-(3-chloro-4-fluorophenyl)-5-(2-(3-fluoro-3-methylazetidin-1-yl)-2-oxoethyl)thieno[3,2-c]pyridin-4(5H)-one]
7 | 46 | O=C(Cn1ccc2scc(-c3ccc(F)c(Cl)c3)c2c1=O)N1CC[C@H](F)C1 [Example 40, (S)-3-(3-chloro-4-fluorophenyl)-5-(2-(3-fluoropyrrolidin-1-yl)-2-oxoethyl)thieno[3,2-c]pyridin-4(5H)-one]
8 | 77 | O=C(Cn1ccc2scc(-c3ccc(F)c(Cl)c3)c2c1=O)N1CC[C@@H](F)C1 [Example 41, (R)-3-(3-chloro-4-fluorophenyl)-5-(2-(3-fluoropyrrolidin-1-yl)-2-oxoethyl)thieno[3,2-c]pyridin-4(5H)-one]
9 | 150 | CC1(F)CN(C(=O)Cn2ccc3scc(-c4ccc(Cl)c(Cl)c4)c3c2=O)C1 [Example 42, 3-(3,4-dichlorophenyl)-5-(2-(3-fluoro-3-methylazetidin-1-yl)-2-oxoethyl)thieno[3,2-c]pyridin-4(5H)-one]
10 | 160 | CC1(F)CN(C(=O)Cn2ccc3scc(-c4ccc(F)c(C(F)(F)F)c4)c3c2=O)C1 [Example 43, 3-(4-fluoro-3-(trifluoromethyl)phen-yl)-5-(2-(3-fluoro-3-methylazetidin-1-yl)-2-oxoethyl)thieno[3,2-c]pyridin-4(5H)-one]
11 | 63 | O=C(Cn1ccc2scc(-c3ccc(F)c(Cl)c3)c2c1=O)N1CC(F)(C2CC2)C1 [Example 44, 3-(3-chloro-4-fluorophenyl)-5-(2-(3-cyclopropyl-3-fluoroazetidin-1-yl)-2-oxoethyl)thieno[3,2-c]pyridin-4(5H)-one]
12 | 12 | O=C(Cn1ccc2scc(-c3ccc(F)c(C(F)(F)F)c3)c2c1=O)N1CC(F)(C2CC2)C1 [Example 45, 5-(2-(3-cyclopropyl-3-fluoroazetidin-1-yl)-2-oxoethyl)-3-(4-fluoro-3-(trifluoromethyl)phen-yl)thieno[3,2-c]pyridin-4(5H)-one]
13 | 26 | O=C(Cn1ccc2scc(-c3ccc(F)c(Cl)c3)c2c1=O)N1CCC1 [Example 46, 5-(2-(azetidin-1-yl)-2-oxoethyl)-3-(3-chloro-4-fluorophenyl)thieno[3,2-c]pyridin-4(5H)-one]
14 | 23 | O=C(Cn1ccc2scc(-c3ccc(F)c(Cl)c3)c2c1=O)N1CC(F)C1 [Example 47, 3-(3-chloro-4-fluorophenyl)-5-(2-(3-fluoroazetidin-1-yl)-2-oxoethyl)thieno[3,2-c]pyridin-4(5H)-one]
15 | 67 | CC1CN(C(=O)Cn2ccc3scc(-c4ccc(F)c(Cl)c4)c3c2=O)C1 [Example 48, 3-(3-chloro-4-fluorophenyl)-5-(2-(3-methylazetidin-1-yl)-2-oxoethyl)thieno[3,2-c]pyridin-4(5H)-one]
16 | 26 | O=C(Cn1ccc2scc(-c3ccc(Cl)c(Cl)c3)c2c1=O)N1CC(F)(C2CC2)C1 [Example 49, 5-(2-(3-cyclopropyl-3-fluoroazetidin-1-yl)-2-oxoethyl)-3-(3,4-dichlorophenyl)thien-o[3,2-c]pyridin-4(5H)-one]
17 | 96 | CCC1(F)CN(C(=O)Cn2ccc3scc(-c4ccc(Cl)c(Cl)c4)c3c2=O)C1 [Example 50, 3-(3,4-dichlorophenyl)-5-(2-(3-ethyl-3-fluoroazetidin-1-yl)-2-oxoethyl)thieno[3,2-c]pyridin-4(5H)-one]

Row | Response Recovered (%) | Structure (SMILES)
18 | 57 | CCC1(F)CN(C(=O)Cn2ccc3scc(-c4ccc(F)c(C(F)(F)F)c4)c3c2=O)C1 [Example 51, 5-(2-(3-ethyl-3-fluoroazetidin-1-yl)-2-oxoethyl)-3-(4-fluoro-3-(trifluoromethyl)phen-yl)thieno[3,2-c]pyridin-4(5H)-one]
19 | 130 | CCC1(F)CN(C(=O)Cn2ccc3scc(-c4ccc(F)c(Cl)c4)c3c2=O)C1 [Example 52, 3-(3-chloro-4-fluorophenyl)-5-(2-(3-ethyl-3-fluoroazetidin-1-yl)-2-oxoethyl)thieno[3,2-c]pyridin-4(5H)-one]
20 | 24 | O=C(Cn1ccc2scc(-c3ccc(Cl)c(Cl)c3)c2c1=O)N1CC(F)(c2ccccc2)C1 [Example 53, 3-(3,4-dichlorophenyl)-5-(2-(3-fluoro-3-phenylazetidin-1-yl)-2-oxoethyl)thieno[3,2-c]pyridin-4(5H)-one]
21 | 17 | O=C(Cn1ccc2scc(-c3ccc(F)c(C(F)(F)F)c3)c2c1=O)N1CC(F)(c2ccccc2)C1 [Example 54, 3-(4-fluoro-3-(trifluoromethyl)phen-yl)-5-(2-(3-fluoro-3-phenylazetidin-1-yl)-2-oxoethyl)thieno[3,2-c]pyridin-4(5H)-one]
22 | 14 | CC1(O)CN(C(=O)Cn2ccc3scc(-c4ccc(F)c(C(F)(F)F)c4)c3c2=O)C1 [Example 55, 3-(4-fluoro-3-(trifluoromethyl)phen-yl)-5-(2-(3-hydroxy-3-methylazetidin-1-yl)-2-oxoethyl)thieno[3,2-c]pyridin-4(5H)-one]
23 | 7.3 | O=C(Cn1ccc2scc(-c3ccc(F)c(Cl)c3)c2c1=O)NCC(F)(F)F [Example 56, 2-(3-(3-chloro-4-fluorophenyl)-4-oxothieno[3,2-c]pyridin-5(4H)-yl)-N-(2,2,2-trifluoroethyl)aceta-mide]
24 | 15 | O=C(Cn1ccc2scc(-c3ccc(F)c(Cl)c3)c2c1=O)N1CC(F)(c2ccccc2)C1 [Example 57, 3-(3-chloro-4-fluorophenyl)-5-(2-(3-fluoro-3-phenylazetidin-1-yl)-2-oxoethyl)thieno[3,2-c]pyridin-4(5H)-one]
25 | 10 | CC1(O)CN(C(=O)Cn2ccc3scc(-c4ccc(F)c(Cl)c4)c3c2=O)C1 [Example 58, 3-(3-chloro-4-fluorophenyl)-5-(2-(3-hydroxy-3-methylazetidin-1-yl)-2-oxoethyl)thieno[3,2-c]pyridin-4(5H)-one]
26 | 110 | CC1CN(C(=O)Cn2ccc3scc(-c4ccc(Cl)c(Cl)c4)c3c2=O)C1 [Example 59, 3-(3,4-dichlorophenyl)-5-(2-(3-methylazetidin-1-yl)-2-oxoethyl)thieno[3,2-c]pyridin-4(5H)-one]
27 | 76 | CC1CN(C(=O)Cn2ccc3scc(-c4ccc(F)c(C(F)(F)F)c4)c3c2=O)C1 [Example 60, 3-(4-fluoro-3-(trifluoromethyl)phen-yl)-5-(2-(3-methylazetidin-1-yl)-2-oxoethyl)thieno[3,2-c]pyridin-4(5H)-one]
28 | 16 | CC1(O)CN(C(=O)Cn2ccc3scc(-c4ccc(Cl)c(Cl)c4)c3c2=O)C1 [Example 61, 3-(3,4-dichlorophenyl)-5-(2-(3-hydroxy-3-methylazetidin-1-yl)-2-oxoethyl)thieno[3,2-c]pyridin-4(5H)-one]
29 | 11 | COC1(C)CN(C(=O)Cn2ccc3scc(-c4ccc(F)c(Cl)c4)c3c2=O)C1 [Example 62, 3-(3-chloro-4-fluorophenyl)-5-(2-(3-methoxy-3-methylazetidin-1-yl)-2-oxoethyl)thieno[3,2-c]pyridin-4(5H)-one]
30 | 16 | COC1(C)CN(C(=O)Cn2ccc3scc(-c4ccc(Cl)c(Cl)c4)c3c2=O)C1 [Example 63, 3-(3,4-dichlorophenyl)-5-(2-(3-methoxy-3-methylazetidin-1-yl)-2-oxoethyl)thieno[3,2-c]pyridin-4(5H)-one]
31 | 22 | COC1(C)CN(C(=O)Cn2ccc3scc(-c4ccc(F)c(C(F)(F)F)c4)c3c2=O)C1 [Example 64, 3-(4-fluoro-3-(trifluoromethyl)phen-yl)-5-(2-(3-methoxy-3-methylazetidin-1-yl)-2-oxoethyl)thieno[3,2-c]pyridin-4(5H)-one]
32 | 13 | O=C(Cn1ccc2scc(-c3ccc(F)c(Cl)c3)c2c1=O)N1CC2C(C1)C2(F)F (stereo not drawn) [Example 65, 3-(3-chloro-4-fluorophenyl)-5-(2-(6,6-difluoro-3-azabicyclo[3.1.0]hex-an-3-yl)-2-oxoethyl)thieno[3,2-c]pyridin-4(5H)-one]
33 | 26 | O=C(Cn1ccc2scc(-c3ccc(Cl)c(Cl)c3)c2c1=O)N1CC2C(C1)C2(F)F (stereo not drawn) [Example 66, 3-(3,4-dichlorophenyl)-5-(2-(6,6-difluoro-3-azabicyclo[3.1.0]hex-an-3-yl)-2-oxoethyl)thieno[3,2-c]pyridin-4(5H)-one]
